In US20230190740A1, “AN NK-1 RECEPTOR ANTAGONIST FOR TREATING A DISEASE SELECTING FROM SEPSIS, SEPTIC SHOCK, ACUTE RESPIRATORY DISTRESS SYNDROME (ARDS) OR MULTIPLE ORGAN D[…] (MODS)” (NeRRe Therapeutics Limited, priority 2020, published 2023):

What was measured:
[1] = tested on: proinflammatory mediators in BALF after intranasal lipopolysaccharide (LPS) challenge; assay: LPS induced neutrophilia model of lung inflammation and injury (mouse model of ARDS): proinflammatory mediators in BALF; format: in vivo, female C57BL6J mice; parameters: key to IL-1β, 4 hr Statistical significance / TNFα, 24 hr Statistical significance / VEGF-A, 4 hr Statistical significance / MCP-1, 4 hr Statistical significance: * p < 0.05; ** p < 0.01; *** p < 0.001; **** p < 0.0001.; not significant (NS)
Procedure: (§1) Orvepitant was evaluated in the established mouse model of ARDS; the LPS induced neutrophilia model of lung inflammation and injury.
(§2) The effects of vehicle control or orvepitant (250 mg/kg of orvepitant maleate anhydrous crystalline form [Form 1]), dosed orally 1 hour prior to challenge, on pulmonary inflammation induced by a single intranasal challenge dose (10 ug/kg) of either proinflammatory lipopolysaccharide (LPS), or phosphate-buffered saline (PBS) control, was investigated in female C57BL6J mice. Animals were euthanised at either 4 or 24 hours, and inflammatory cell counts and mediators were assayed in bronchoalveolar lavage (BALF) from all animals.
(§3) Key: Bronchoalveolar lavage fluid (BALF); intranasal (in); lipopolysaccharide (LPS); number of female C57BL6J mice/group (n); per os (po); phosphate buffered saline (PBS).

[2] = tested on: pulmonary inflammation induced by intranasal lipopolysaccharide (LPS) challenge; assay: LPS induced neutrophilia model of lung inflammation and injury (mouse model of ARDS): inflammatory cell counts in BALF; format: in vivo, female C57BL6J mice; parameters: key to WBC cell counts, 4 hr Statistical significance / Neutrophils cell counts, 4 hr Statistical significance: * p < 0.05; ** p < 0.01; *** p < 0.001; **** p < 0.0001.; not significant (NS)
Procedure: as §1, §2, §3

[3] = 250 mg/kg per os, BALF at 4 hr after LPS intranasal challenge, vs vehicle/LPS group
[4] = 250 mg/kg per os, BALF at 24 hr after LPS intranasal challenge, vs vehicle/LPS group
[5] = 250 mg/kg per os 1 hour prior to LPS intranasal challenge, BALF at 4 hr, vs vehicle/LPS group
[6] = 250 mg/kg per os 1 hour prior to LPS intranasal challenge, BALF at 24 hr, vs vehicle/LPS group

Cc1cc(F)ccc1[C@H]1C[C@@H](N2CCN3C(=O)CC[C@H]3C2)CCN1C(=O)N(C)[C@H](C)c1cc(C(F)(F)F)cc(C(F)(F)F)c1 [orvepitant, 2-(R)-(4-Fluoro-2-methyl-phenyl)-4-(S)-((8aS)-6-oxo-hexahydro-pyrrolo[1,2-a]-pyrazin-2-yl)-piperidine-1-carboxylic acid [1-(R)-(3,5-bis-trifluoromethyl-phenyl)-ethyl]-methylamide]
effect on range of proinflammatory mediators measured in the BALF ([1]; 250 mg/kg orally, at both 4 and 24 hours, vs vehicle treated LPS-challenged animals): reduced
IL17A, 4 hr % mean reduction [1, 3]: (36%)
IL17A, 4 hr Statistical significance [1, 3]: **** (**** p < 0.0001.)
IL-1β, 4 hr Statistical significance [1, 3]: NS
IL-6, 4 hr % mean reduction [1, 3]: (44%)
IL-6, 4 hr Statistical significance [1, 3]: ** (** p < 0.01)
MCP-1, 4 hr Statistical significance [1, 3]: NS
TNFα, 4 hr % mean reduction [1, 3]: (26%)
TNFα, 4 hr Statistical significance [1, 3]: * (* p < 0.05)
VEGF-A, 4 hr Statistical significance [1, 3]: NS
IL17A, 24 hr % mean reduction [1, 4]: (47%)
IL17A, 24 hr Statistical significance [1, 4]: * (* p < 0.05)
IL-1β, 24 hr % mean reduction [1, 4]: (33%)
IL-6, 24 hr % mean reduction [1, 4]: (39%)
MCP-1, 24 hr % mean reduction [1, 4]: (56%)
MCP-1, 24 hr Statistical significance [1, 4]: ** (** p < 0.01)
TGF-β1, 24 hr % mean reduction [1, 4]: (62%)
TGF-β1, 24 hr Statistical significance [1, 4]: *** (*** p < 0.001)
TNFα, 24 hr Statistical significance [1, 4]: NS
VEGF-A, 24 hr % mean reduction [1, 4]: (32%)
effect on inflammatory cell migration ([2]; 250 mg/kg orally, ARDS LPS induced neutrophilia model): ameliorated
Neutrophils cell counts, 4 hr Statistical significance [2, 5]: NS
WBC cell counts, 4 hr Statistical significance [2, 5]: NS
Neutrophils cell counts, 24 hr Statistical significance [2, 6]: *** (*** p < 0.001)
WBC cell counts, 24 hr Statistical significance [2, 6]: *** (*** p < 0.001)
